Laboratory results reported in US12415816B2, “Benzothiazole derivatives and 7-aza-benzothiazole derivatives as janus kinase 2 inhibitors and uses thereof” (Dana-Farber Cancer Institute, Inc., priority 2018, dated 2025).

Target: JAK2 (Homo sapiens (Human), UniProt O60674)
Test: JAK2 Z-Lyte biochemical assay
Details: commercial JAK2 Z-Lyte assay from Invitrogen
Procedure: The JAK2 Z-Lyte biochemical assay was performed according to manufacturer's instructions (Life Technologies).

Sequence of JAK2 (O60674 whole entry): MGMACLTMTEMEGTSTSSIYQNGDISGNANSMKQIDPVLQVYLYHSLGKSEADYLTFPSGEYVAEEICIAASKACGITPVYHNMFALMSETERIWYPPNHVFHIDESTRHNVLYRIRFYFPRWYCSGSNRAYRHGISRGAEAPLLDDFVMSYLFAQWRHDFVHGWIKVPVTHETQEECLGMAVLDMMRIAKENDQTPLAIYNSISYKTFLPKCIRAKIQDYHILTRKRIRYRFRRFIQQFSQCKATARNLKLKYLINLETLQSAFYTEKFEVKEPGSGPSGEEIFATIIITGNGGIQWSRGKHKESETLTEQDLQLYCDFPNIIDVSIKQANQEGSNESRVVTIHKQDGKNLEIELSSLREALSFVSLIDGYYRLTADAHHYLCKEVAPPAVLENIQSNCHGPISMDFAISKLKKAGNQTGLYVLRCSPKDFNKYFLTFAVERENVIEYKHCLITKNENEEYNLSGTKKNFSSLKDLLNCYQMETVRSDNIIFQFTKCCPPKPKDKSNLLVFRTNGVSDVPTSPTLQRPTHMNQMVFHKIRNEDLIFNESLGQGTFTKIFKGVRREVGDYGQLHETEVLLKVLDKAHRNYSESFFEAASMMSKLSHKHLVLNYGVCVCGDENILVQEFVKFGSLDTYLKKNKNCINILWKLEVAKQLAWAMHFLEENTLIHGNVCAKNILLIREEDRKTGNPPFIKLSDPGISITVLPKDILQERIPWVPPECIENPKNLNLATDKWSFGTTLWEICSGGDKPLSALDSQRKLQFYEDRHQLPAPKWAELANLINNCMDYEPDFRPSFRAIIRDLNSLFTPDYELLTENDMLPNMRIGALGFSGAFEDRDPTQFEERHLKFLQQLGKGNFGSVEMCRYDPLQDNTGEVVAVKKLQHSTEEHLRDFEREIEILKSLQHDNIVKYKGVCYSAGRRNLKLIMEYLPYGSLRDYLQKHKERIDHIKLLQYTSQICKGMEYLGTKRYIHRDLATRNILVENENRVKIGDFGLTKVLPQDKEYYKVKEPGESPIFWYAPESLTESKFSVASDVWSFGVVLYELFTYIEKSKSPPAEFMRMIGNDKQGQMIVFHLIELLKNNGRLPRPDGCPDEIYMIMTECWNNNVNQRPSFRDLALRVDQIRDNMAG

SMILES | IC50
Cc1ccc(C(=O)Nc2ccc(F)cc2F)cc1-c1ccc2nc(NC(=O)C3CC3)sc2n1 [Compound I-1, 3-(2-(cyclopropanecarboxamido)thiazolo[5,4-b]pyridin-5-yl)-N-(2,4-difluorophenyl)-4-methylbenzamide] | > 10 µM
Cc1ccc(NC(=O)Nc2ccc(F)cc2F)cc1Oc1ccc2nc(NC(=O)C3CC3)sc2n1 [Compound I-16, N-(5-(5-(3-(2,4-difluorophenyl)ureido)-2-methylphenoxy)thiazolo[5,4-b]pyridin-2-yl)cyclopropanecarboxamide] | > 10 µM
CCN1CCN(Cc2cc(NC(=O)N3CCc4ccc(-c5ccc6nc(NC(=O)C7CC7)sc6n5)cc43)cc(C(F)(F)F)c2)CC1 [Compound I-12, 6-(2-(cyclopropanecarboxamido)thiazolo[5,4-b]pyridin-5-yl)-N-(3-((4-ethylpiperazin-1-yl)methyl)-5-(trifluoromethyl)phenyl)indoline-1-carboxamide] | > 10 µM
O=C(Nc1nc2ccc(-c3ccc4c(c3)N(C(=O)Nc3ccc(F)cc3F)CC4)nc2s1)C1CC1 [Compound I-10, 6-(2-(cyclopropanecarboxamido)thiazolo[5,4-b]pyridin-5-yl)-N-(2,4-difluorophenyl)indoline-1-carboxamide] | > 10 µM
Cc1ccc(NC(=O)Nc2ccc(F)cc2F)cc1-c1ccc2nc(NC(=O)C3CC3)sc2n1 [Compound I-3, N-(5-(5-(3-(2,4-difluorophenyl)ureido)-2-methylphenyl)thiazolo[5,4-b]pyridin-2-yl)cyclopropanecarboxamide] | > 10 µM
CCN1CCN(Cc2cc(C(=O)Nc3ccc(C)c(-c4ccc5nc(NC(=O)C6CC6)sc5c4)c3)cc(C(F)(F)F)c2)CC1 [Compound I-4] | 0.881 µM
CCN1CCN(Cc2cc(NC(=O)N3Cc4ccc(Oc5ccc6nc(NC(=O)C7CC7)sc6n5)cc4C3)cc(C(F)(F)F)c2)CC1 [Compound I-22, 5-((2-(cyclopropanecarboxamido)thiazolo[5,4-b]pyridin-5-yl)oxy)-N-(3-((4-ethylpiperazin-1-yl)methyl)-5-(trifluoromethyl)phenyl)isoindoline-2-carboxamide] | > 10 µM
CCN1CCN(Cc2cc(NC(=O)Nc3ccc(C)c(-c4ccc5nc(NC(=O)C6CC6)sc5n4)c3)cc(C(F)(F)F)c2)CC1 [Compound I-9, N-(5-(5-(3-(3-((4-ethylpiperazin-1-yl)methyl)-5-(trifluoromethyl)phenyl)ureido)-2-methylphenyl)thiazolo[5,4-b]pyridin-2-yl)cyclopropanecarboxamide] | > 10 µM
CCN1CCN(Cc2cc(C(=O)Nc3ccc(C)c(Oc4ccc5nc(NC(=O)C6CC6)sc5n4)c3)cc(C(F)(F)F)c2)CC1 [Compound I-19, N-(3-((2-(cyclopropanecarboxamido)thiazolo[5,4-b]pyridin-5-yl)oxy)-4-methylphenyl)-3-((4-ethylpiperazin-1-yl)methyl)-5-(trifluoromethyl)benzamide] | 0.824 µM
CCN1CCN(Cc2cc(C(=O)N3Cc4ccc(-c5ccc6nc(NC(=O)C7CC7)sc6n5)cc4C3)cc(C(F)(F)F)c2)CC1 [Compound I-13, N-(5-(2-(3-((4-ethylpiperazin-1-yl)methyl)-5-(trifluoromethyl)benzoyl)isoindolin-5-yl)thiazolo[5,4-b]pyridin-2-yl)cyclopropanecarboxamide] | > 10 µM
CCN1CCN(Cc2cc(NC(=O)c3ccc(C)c(Oc4ccc5nc(NC(=O)C6CC6)sc5n4)c3)cc(C(F)(F)F)c2)CC1 [Compound I-20, 3-((2-(cyclopropanecarboxamido)thiazolo[5,4-b]pyridin-5-yl)oxy)-N-(3-((4-ethylpiperazin-1-yl)methyl)-5-(trifluoromethyl)phenyl)-4-methylbenzamide] | 2.83 µM
CCN1CCN(Cc2cc(C(=O)Nc3cccc(-c4ccc5nc(NC(=O)C6CC6)sc5n4)c3)cc(C(F)(F)F)c2)CC1 [Compound I-7, N-(3-(2-(cyclopropanecarboxamido)thiazolo[5,4-b]pyridin-5-yl)phenyl)-3-((4-ethylpiperazin-1-yl)methyl)-5-(trifluoromethyl)benzamide] | 0.55 µM
O=C(Nc1nc2ccc(Oc3ccc4nc(Nc5ccc(F)cc5F)[nH]c4c3)nc2s1)C1CC1 [Compound I-24, N-(5-((2-((2,4-difluorophenyl)amino)-1H-benzo[d]imidazol-6-yl)oxy)thiazolo[5,4-b]pyridin-2-yl)cyclopropanecarboxamide] | > 10 µM
CCN1CCN(Cc2cc(NC(=O)N3Cc4ccc(-c5ccc6nc(NC(=O)C7CC7)sc6n5)cc4C3)cc(C(F)(F)F)c2)CC1 [Compound I-14, 5-(2-(cyclopropanecarboxamido)thiazolo[5,4-b]pyridin-5-yl)-N-(3-((4-ethylpiperazin-1-yl)methyl)-5-(trifluoromethyl)phenyl)isoindoline-2-carboxamide] | > 10 µM
O=C(Nc1nc2ccc(-c3ccc4c(c3)CN(C(=O)Nc3ccc(F)cc3F)C4)nc2s1)C1CC1 [Compound I-15, 5-(2-(cyclopropanecarboxamido)thiazolo[5,4-b]pyridin-5-yl)-N-(2,4-difluorophenyl)isoindoline-2-carboxamide] | > 10 µM
CCN1CCN(Cc2cc(C(=O)N3CCc4ccc(-c5ccc6nc(NC(=O)C7CC7)sc6n5)cc43)cc(C(F)(F)F)c2)CC1 [Compound I-11, N-(5-(1-(3-((4-ethylpiperazin-1-yl)methyl)-5-(trifluoromethyl)benzoyl)indolin-6-yl)thiazolo[5,4-b]pyridin-2-yl)cyclopropanecarboxamide] | > 10 µM
CCN1CCN(Cc2ccc(NC(=O)Nc3ccc(C)c(Oc4ccc5nc(NC(=O)C6CC6)sc5n4)c3)cc2C(F)(F)F)CC1 [Compound I-17, N-(5-(5-(3-(4-((4-ethylpiperazin-1-yl)methyl)-3-(trifluoromethyl)phenyl)ureido)-2-methylphenoxy)thiazolo[5,4-b]pyridin-2-yl)cyclopropanecarboxamide] | > 10 µM
CCN1CCN(Cc2ccc(Nc3nc4ccc(Oc5ccc6nc(NC(=O)C7CC7)sc6n5)cc4[nH]3)cc2C(F)(F)F)CC1 [Compound I-25, N-(5-((2-((4-((4-ethylpiperazin-1-yl)methyl)-3-(trifluoromethyl)phenyl)amino)-1H-benzo[d]imidazol-6-yl)oxy)thiazolo[5,4-b]pyridin-2-yl)cyclopropanecarboxamide] | 0.63 µM
O=C(Nc1nc2ccc(Oc3ccc4c(c3)CN(C(=O)Nc3ccc(F)cc3F)C4)nc2s1)C1CC1 [Compound I-23, 5-((2-(cyclopropanecarboxamido)thiazolo[5,4-b]pyridin-5-yl)oxy)-N-(2,4-difluorophenyl)isoindoline-2-carboxamide] | > 10 µM
CCN1CCN(Cc2ccc(NC(=O)N3Cc4ccc(Oc5ccc6nc(NC(=O)C7CC7)sc6n5)cc4C3)cc2C(F)(F)F)CC1 [Compound I-21, 5-((2-(cyclopropanecarboxamido)thiazolo[5,4-b]pyridin-5-yl)oxy)-N-(4-((4-ethylpiperazin-1-yl)methyl)-3-(trifluoromethyl)phenyl)isoindoline-2-carboxamide] | > 10 µM
CC(=O)Nc1nc2ccc(-c3cc(C(=O)Nc4ccc(F)cc4F)ccc3C)nc2s1 [Compound I-2, 3-(2-acetamidothiazolo[5,4-b]pyridin-5-yl)-N-(2,4-difluorophenyl)-4-methylbenzamide] | > 10 µM
